Data on two molecules can be found in US12397041B2, “Vasoactive intestinal peptide release from microparticles” (UNIVERSITY OF PITTSBURGH—OF THE COMMONWEALTH SYSTEM OF …, priority 2009, dated 2025).

“Also recorded” adds a separate entry of the source. Ends that are not written are not given here.

The test system of assay [1] is dendritic cells. Nature of the assay: CCL22 production by dendritic cells (ELISA). It is filed as cell-based, murine. Particulars: LPS-matured DCs, soluble VIP. The procedure: Dendritic cells were isolated from murine bone marrow and cultured following standard procedures.
(§1) In the first two experiments, both GM-CSF and IL-4 were added to DC media (modified RPMI 1640) of bone marrow cell cultures during media changes on Days 0, 3 and 6. In the third experiment, the IL-4 was purposely omitted and GM-CSF was added in 5× concentration. On Day 6, CD11c+ DC cells were isolated using MACS cell sorting beads and plated in a 24-well plate at 100,000 cells/well. Five different groups of four wells each were analyzed and received treatment. […] A mature DC control group received only LPS. Three different groups were matured with LPS and received different concentrations of either soluble VIP or releasates of VIP microparticles or blank microparticles (using the 12.6 kDa polymer).
Dose Response Protocol: Soluble VIP was added in concentrations of 10^−6 M, 10^−8 M, and 10^−9 M to both immature DC groups and DCs matured with LPS. Twelve different groups were matured with LPS and received different concentrations of either blank porous, blank nonporous, VIP porous, or VIP nonporous microparticles (of the 12.6 kDa polymer). Microparticles were added in concentrations of either 2.77 mg/mL, 1.39 mg/mL, and 0.277 mg/mL. In a second DC culture, the low concentration of microparticles was reduced to 0.0556 mg/mL. […]

In assay [2] the test system is FoxP3+CD4+ T-cells. The assay is described as follows: Chemotaxis of CD4+ T-cells through transwells toward treated DCs, FoxP3+ by flow cytometry. It is filed as cell-based, mouse. Particulars: LPS. The procedure: as §1
Preliminary Protocol: Soluble VIP was added to the third group in concentration of 2.5×10^−8 M. Ten milligrams of microparticles were first incubated for 4-6 hours in media and 250 μL of releasates were added to each well. […]
For chemotaxis studies, in the first two experiments, both GM-CSF and IL-4 were added to DC media (modified RPMI 1640) of bone marrow cell cultures during media changes on Days 0, 3 and 6. […] Five different groups of four wells each were analyzed and received treatment. […]
CD4+ T-cells were isolated from the spleen and lymph nodes of a mouse using Dynal beads following the lab protocol. […] T Cells that flowed through were analyzed for FoxP3+ expression using flow cytometry.

Assay [3] has as its system mice infected with A. actinomycetemcomitans (periodontitis). Nature of the assay: Mouse periodontitis model with CCL-22 microparticles / systemic VIP, alveolar bone resorption and Treg recruitment. It is filed as in vivo.
Description: To this end, B6 mice (n=6) were infected orally with the periodontal pathogen A. actinomycetemcomitans (Aa) and treated with microparticles containing CCL-22 (CCL-22MPs) or empty microparticles (BlankMPs) according to the schedule outlined above. Additionally vasoactive intestinal peptide (VIP) was administered intraperitoneally. Mice receiving only PBS and the thickener carboxymethyl cellulose served as controls (Untreated). Experimental treatments were administered in the periodontal pocket of the right maxilla while left maxillae were used as internal negative controls in each mouse. Alveolar bone loss was quantified as the area between the cementoenamel junction (CEJ) and the alveolar bone crest (ABC) FIG. 23, CEJ and FIG. 23A, ABC). Alveolar bone levels are shown on the left (internal control, FIG. 23A LEFT) and right (BlankMP treated, FIG. 23A RIGHT) maxilla.
Assay [4] has as its system FoxP3, IL-10, RANKL, CCL-22 mRNA in periodontal tissues. The assay is described as follows: Real-time PCR of markers in periodontal tissues of diseased mice. Particulars: systemic injections at days −1, 7, 14, 21, 28. It is filed as in vivo, mouse. The procedure: To verify that Tregs are recruited toward microparticles that sustain release of CCL-22, formulations were administered into the periodontium of diseased mice. Briefly, mice were orally exposed to the periodontal pathogen A. actinomycetemcomitans (Aar) on day 0, and also received CCL-22 microparticles (CCL-22MPs) or blank (empty) microparticles (BlankMPs) in their periodontal pockets. Specifically, mice received microparticle injections at day −1, 10 and 20, mice treated with VIP injections received systemic injections at days −1, 7, 14, 21, 28. Untreated mice served as negative controls. At day 30, all mice were sacrificed and maxilla's were resected. […] FIG. 22A. […] Figure BIB. […] FIG. 22C.
In this experiment, artificial antigen presenting cells providing a CCL-22 controlled release formulation were injected into palatal gingival tissue of right molars of mice (n=3) at the times of −1, 10 and 20 days of periodontal infection. At 30 days, total RNA was extracted from periodontal tissues as previously described and analyzed for regulatory T-cell and periodontal disease factor. […]
Real-Time PCR Analysis. […] RealTime-PCR quantitative mRNA analyses will be done in a MiniOpticon system (BioRad, Hercules, CA), using SybrGreen Master Mix (Invitrogen), 100 nM specific primers, and 2.5 ng of cDNA in each reaction. […]
(Real-time PCR tracks product formation cycle by cycle.)

Assay [5] deals with CD4+ T cells (CCR4). The assay is described as follows: In vitro transwell migration assay toward CCL22. It is filed as cell-based, murine. Particulars: activated vs naïve CD4+ T cells. The text has this: (* p<0.05, one-tailed Students ‘t’ test).
Simultaneously, the ability of CCL22 to attract murine T cells was examined. Expression of chemokine receptors for CCL22 (i.e., for example, the CCR4 receptor) are known to control the ability of cells to respond to CCL22 gradients. Moreover, there is evidence that only activated T cells express the CCR4 receptor. Baatar et al., Journal of Immunology 178: 4891-4900 (2007); Lim et al., Journal of Immunology 177:840-851 (2006); and Lee et al., Journal of Experimental Medicine 201:1037-1044 (2005); and FIG. 18A. […] FIG. 18B.

In the case of “vasoactive intestinal peptide (HSDAVFTDNYTRLRKQMAVKKYLNSILN; ends and bridges not checked; UniProt P01282 125-152, looked up) [VIP, neuropeptide of twenty-eight (28) amino acids in length originally isolated from the intestine]”, the “CCL-22 production relative to mature DC control group” value in assay [1] was “similar”. Besides, the “percent of FoxP3+ cells recruited by DCs” value in assay [2] (DC precursors cultured with IL-4 and GM-CSF, soluble VIP 2.5×10^−8 M or releasates) is “recruited a higher percentage of FoxP3+ cells than DCs that only received LPS or releasates from blank particles”; in assay [2] (absence of IL-4, 5× GM-CSF), “recruited the same percentage of FoxP3+ cells”. Also, in assay [3] (MPs at day −1, 10, 20, VIP systemic IP, day 30, vs BlankMPs / negative controls), the “alveolar bone resorption / bone loss” value is given as “significantly less alveolar bone resorption than BlankMPs”. The “Treg (FoxP3+ cell) recruitment to gingival / periodontal tissues” value in assay [3] (mouse, in vivo) is given as “effectively induce Treg migration to periodontal tissues”. The “endogenous CCL-22 production” value in assay [4] is “induced endogenous production of CCL-22”.

B1: CCL22: chemokine that binds the CCR4 receptor, involved in migration of regulatory T-cells (protein, UniProt O00626 25-93, looked up)
C-C motif chemokine 22: GPYGANMEDSVCCRDYVRYRLPLRVVKHFYWTSDSCPRPGVVLLTFRDKEICADPRVPWVKMILNKLSQ
For B1, the “T cell migration towards a CCL22 gradient” value in assay [5] was “significantly greater migration of activated regulatory and effector CD4+ T cells; also recorded: activated T cells (both regulatory and effector cell populations), but not naïve T cells, migrated towards a CCL22 gradient”.
